Assay results as given in ChEMBL document CHEMBL5143514, “Investigation of chalcogen bioisosteric replacement in a series of heterocyclic inhibitors of tryptophan 2,3-dioxygenase” (Eur J Med Chem, 2022).
Activity calls are given as the source filed them. The calls are words filed in the database; no cut-off is given here.

Experiments:
[1] = target: T1, Tryptophan 2,3-dioxygenase (Homo sapiens, UniProt P48775); test: Inhibition of human TDO2 expressed in Escherichia coli BL21-DE3 rosetta cells at pH 6.5 potassium phosphate buffer using L-tryptophan as substrate measured after 15 mins
T1 sequence (P48775 whole entry): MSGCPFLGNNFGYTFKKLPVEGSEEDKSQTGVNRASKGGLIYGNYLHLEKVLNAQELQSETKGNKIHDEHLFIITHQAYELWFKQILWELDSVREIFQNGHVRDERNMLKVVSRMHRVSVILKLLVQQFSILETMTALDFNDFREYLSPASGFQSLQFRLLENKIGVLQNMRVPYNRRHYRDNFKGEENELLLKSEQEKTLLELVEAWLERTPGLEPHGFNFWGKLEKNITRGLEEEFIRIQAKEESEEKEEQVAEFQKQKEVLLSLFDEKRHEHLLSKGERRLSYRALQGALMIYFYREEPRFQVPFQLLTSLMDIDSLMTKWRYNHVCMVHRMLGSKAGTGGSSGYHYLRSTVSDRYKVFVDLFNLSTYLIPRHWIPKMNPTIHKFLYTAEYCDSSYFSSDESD

[2] = target: T1, Tryptophan 2,3-dioxygenase; test: Inhibition of human TDO2 expressed in mouse P815B cells using L-tryptophan as substrate incubated for 7 hrs by UPLC analysis; assay type: cell-based
[3] = target: T2, Indoleamine 2,3-dioxygenase 1 (Homo sapiens, UniProt P14902); test: Inhibition of human IDO1 in potassium phosphate buffer at pH 6.5 using L-tryptophan as substrate incubated for 8 mins
T2 sequence (P14902 whole entry): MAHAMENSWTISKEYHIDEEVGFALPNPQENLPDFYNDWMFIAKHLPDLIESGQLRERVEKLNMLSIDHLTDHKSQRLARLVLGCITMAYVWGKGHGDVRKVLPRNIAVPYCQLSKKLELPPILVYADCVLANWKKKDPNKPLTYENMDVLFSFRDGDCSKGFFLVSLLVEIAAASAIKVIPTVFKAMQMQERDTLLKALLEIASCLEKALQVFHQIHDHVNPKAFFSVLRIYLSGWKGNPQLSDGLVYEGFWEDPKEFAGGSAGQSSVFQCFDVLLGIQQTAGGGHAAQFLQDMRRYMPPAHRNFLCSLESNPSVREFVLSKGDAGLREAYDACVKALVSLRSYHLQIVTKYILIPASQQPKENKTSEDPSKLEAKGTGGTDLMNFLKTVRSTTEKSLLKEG

[4] = target: T2, Indoleamine 2,3-dioxygenase 1; test: Inhibition of human IDO1 expressed in mouse P815B cells using L-tryptophan as substrate incubated for 24 hrs by UPLC analysis; assay type: cell-based
[5] = Lipophilicity, logKw of compound in methanol and water buffer at pH 2.3 by HPLC-UV analysis; assay type: physicochemical
[6] = Metabolic stability in liver microsomes assessed as half life at 10 uM measured upto 24 hrs in the presence of NADPH by UPLC analysis; assay type: ADME, Microsome
[7] = Induction of apoptosis in mouse P815B cells assessed as viable cells at 5 uM measured after 24 hrs by Annexin V-FITC/PI staining based flow cytometry method relative to control; assay type: functional; settings: read-out: Activity
[8] = Cytotoxicity against mouse P815B cells assessed as reduction in cell viability measured after 6 hrs by MTS assay; assay type: functional; settings: read-out: LD50 (the source's name)
[9] = Cytotoxicity against mouse P815B cells assessed as reduction in cell viability measured after 24 hrs by MTS assay; assay type: functional; settings: read-out: LD50 (the source's name)
A 172 [10] = test: Cytotoxicity against human A 172 cells assessed as reduction in cell viability measured after 6 hrs by MTS assay; assay type: functional; settings: read-out: LD50 (the source's name)
A 172 [11] = test: Cytotoxicity against human A 172 cells assessed as reduction in cell viability measured after 24 hrs by MTS assay; assay type: functional; settings: read-out: LD50 (the source's name)
[12] = Cytotoxicity against HEK293 cells assessed as reduction in cell viability measured after 6 hrs by MTS assay; assay type: toxicity, cell-based; settings: human, read-out: LD50
[13] = Cytotoxicity against HEK293 cells assessed as reduction in cell viability measured after 24 hrs by MTS assay; assay type: toxicity, cell-based; settings: human, read-out: LD50
[14] = Induction of apoptosis in mouse P815B cells assessed as viable cells at 1 uM measured after 24 hrs by Annexin V-FITC/PI staining based flow cytometry method relative to control; assay type: functional; settings: read-out: Activity
[15] = Induction of apoptosis in mouse P815B cells assessed as early apoptotic cells at 1 uM measured after 24 hrs by Annexin V-FITC/PI staining based flow cytometry method relative to control; assay type: functional
[16] = Induction of apoptosis in mouse P815B cells assessed as late apoptotic cells at 1 uM measured after 24 hrs by Annexin V-FITC/PI staining based flow cytometry method relative to control; assay type: functional
[17] = Induction of apoptosis in mouse P815B cells assessed as necrotic cells at 1 uM measured after 24 hrs by Annexin V-FITC/PI staining based flow cytometry method relative to control; assay type: functional
[18] = Induction of apoptosis in mouse P815B cells assessed as early apoptotic cells at 5 uM measured after 24 hrs by Annexin V-FITC/PI staining based flow cytometry method relative to control; assay type: functional
[19] = Induction of apoptosis in mouse P815B cells assessed as late apoptotic cells at 5 uM measured after 24 hrs by Annexin V-FITC/PI staining based flow cytometry method relative to control; assay type: functional
[20] = Induction of apoptosis in mouse P815B cells assessed as necrotic cells at 5 uM measured after 24 hrs by Annexin V-FITC/PI staining based flow cytometry method relative to control; assay type: functional
[21] = Induction of apoptosis in mouse P815B cells assessed as viable cells at 10 uM measured after 24 hrs by Annexin V-FITC/PI staining based flow cytometry method relative to control; assay type: functional; settings: read-out: Activity
[22] = Induction of apoptosis in mouse P815B cells assessed as early apoptotic cells at 10 uM measured after 24 hrs by Annexin V-FITC/PI staining based flow cytometry method relative to control; assay type: functional
[23] = Induction of apoptosis in mouse P815B cells assessed as late apoptotic cells at 10 uM measured after 24 hrs by Annexin V-FITC/PI staining based flow cytometry method relative to control; assay type: functional
[24] = Induction of apoptosis in mouse P815B cells assessed as necrotic cells at 10 uM measured after 24 hrs by Annexin V-FITC/PI staining based flow cytometry method relative to control; assay type: functional
[25] = Induction of apoptosis in mouse P815B cells assessed as apoptotic cells at 10 uM measured after 6 hrs by Annexin V-FITC/PI staining based flow cytometry method relative to control; assay type: functional
[26] = Induction of apoptosis in mouse P815B cells assessed as necrotic cells at 10 uM measured after 6 hrs by Annexin V-FITC/PI staining based flow cytometry method relative to control; assay type: functional
[27] = Induction of cell cycle arrest in mouse P815B cells assessed as accumulation of cells at G1 phase at 5 uM measured after 24 hrs by PI staining based flow cytometry method (reference value: 42.8%); assay type: functional
[28] = Induction of cell cycle arrest in mouse P815B cells assessed as accumulation of cells at S phase at 5 uM measured after 24 hrs by PI staining based flow cytometry method (reference value: 45.0%); assay type: functional
[29] = Induction of cell cycle arrest in mouse P815B cells assessed as accumulation of cells at G2 phase at 5 uM measured after 24 hrs by PI staining based flow cytometry method (reference value: 14.6%); assay type: functional
P815B [30] = test: Induction of ROS generation in mouse P815B cells assessed as increase in H2O2 concentration at high concentration measured upto 6 hrs by bioluminescent ROS-Glo H2O2 assay; assay type: functional, cell-based
P815B [31] = test: Cytotoxicity against mouse P815B cells assessed as reduction in cell viability at 30 uM measured after 24 hrs by MTS assay; assay type: functional, cell-based

| SMILES | IC50 [1] | IC50 [2] | IC50 [3] | IC50 [4] | logKw [5] | half-life at 10 µM [6] | CC50 [8] | CC50 [9] | CC50 (A 172 [10]) | CC50 (A 172 [11]) | CC50 at 6 h [12] | CC50 at 24 h [13] | Activity (P815B [30]) | Activity (P815B [31]) | further results |
| --- | --- | --- | --- | --- | --- | --- | --- | --- | --- | --- | --- | --- | --- | --- | --- |
| c1ccc2c(-c3ccc4n[se]nc4c3)c[nH]c2c1 | 2.5 µM | 94 nM | > 100 µM | > 100 µM | 3.5 | 70.2 min | 30 µM | 3 µM | 30 µM | 30 µM | 30 µM | 10 µM | Active | – | viability at 5 µM [7]: 79.2%; viability at 1 µM [14]: 81%; Activity [15]: 1.15%; Activity [16]: 16.6%; Activity [17]: 1.24%; Activity [18]: 5.19%; Activity [19]: 14.2%; Activity [20]: 1.46%; viability at 10 µM [21]: 52.7%; Activity [22]: 2.64%; Activity [23]: 44.1%; Activity [24]: 0.55%; Activity [25]: 30.4%; Activity [26]: 27.6%; Activity [27]: 47.3%; Activity [28]: 41.3%; Activity [29]: 11.6% |
| c1ccc2c(-c3cnc4nsnc4c3)c[nH]c2c1 | 4.7 µM | 82 nM | > 100 µM | > 100 µM | 3.3 | 22 min | > 80 µM | 30 µM | > 80 µM | > 80 µM | > 80 µM | > 80 µM | – | Toxic | – |
| c1ccc2c(-c3cnc4n[se]nc4c3)c[nH]c2c1 | 4.5 µM | 171 nM | > 100 µM | > 100 µM | 2.9 | 28.3 min | > 80 µM | 30 µM | > 80 µM | > 80 µM | > 80 µM | > 80 µM | Active | Toxic | – |
| c1ccc2c(-c3ccc4nonc4c3)c[nH]c2c1 | 3.4 µM | 51 nM | > 100 µM | > 100 µM | 4.1 | 24.6 min | 10 µM | 10 µM | 30 µM | 30 µM | > 80 µM | > 80 µM | – | – | – |
| c1ccc2c(-c3ccc4nsnc4c3)c[nH]c2c1 | 3 µM | 129 nM | > 100 µM | > 100 µM | 4 | 35.6 min | 30 µM | 10 µM | 30 µM | 30 µM | > 80 µM | > 80 µM | – | – | – |
